Results taken from patent US7763602B2, “Pyrrole derivatives as antimycobacterial compounds” (priority 2002, dated 2010).
≈ marks a conversion by molar mass, not a printed value. Read-outs that look alike come from different tables or passages of the source.

Experiments:
[1] = system: M. tuberculosis strain 103471; details: literature values; cited from earlier work
[2] = system: M. tuberculosis H37Rv ATCC 27294; assay: In vitro growth inhibition assay, BACTEC 460 TB system; assay type: cell-based, Mycobacterium tuberculosis; design: key: +: If ΔGI of test vial is less than that of the control vial the culture was sensitive to the test compound; details: final concentration 6.25 μg/ml
[3] = system: M. tuberculosis 27294; assay: In vitro agar dilution assay (MIC), reference strain; assay type: cell-based, Mycobacterium tuberculosis; details: for MIC: Mycobacterium tuberculosis, 27294, Table I, read-out: MIC (μg/ml) against M. tuberculosis-27294
[4] = system: M. tuberculosis clinical isolates, sensitive; assay: microbe, parasite or virus in culture; assay type: cell-based, Mycobacterium tuberculosis; details: for MIC: Mycobacterium tuberculosis
[5] = system: M. avium-intracellulare complex; assay: In vitro agar dilution assay (MIC), M. avium-intracellulare complex; assay type: cell-based; details: Mycobacterium avium-intracellulare; Table II; 13 strains; read-out: MIC (μg/ml) M. avium-intracellulare complex (n = 13)
[6] = system: M. fortuitum; assay: In vitro agar dilution assay (MIC), M. fortuitum; assay type: cell-based, Mycobacterium fortuitum; details: Mycolicibacterium fortuitum, read-out: MIC (μg/ml) M. fortuitum (n = 8)
[7] = system: M. kansasii; assay: In vitro agar dilution assay (MIC), M. kansasii; assay type: cell-based; details: Mycobacterium kansasii, read-out: MIC (μg/ml) M. kansasii (n = 2)
[8] = Acute toxicity study in mice; assay type: in vivo, Swiss albino mice; details: for LD0: single oral dose, mice
Procedure: Compound No. 3 of formula (I) was administered, as a single oral dose, in Swiss albino mice. Two dose levels of 500 and 2000 mg/kg were employed. […] Therefore LD0 was >2000 mg/kg by oral route in mice. […] Similarly in compound No. 12 of Formula I, LD0 was >500 mg/kg by oral route in mice.

[9] = system: M. tuberculosis H37Rv ATCC 27294; assay: Murine model of pulmonary tuberculosis, treated 01 day post-infection; details: for Mean Log10 No. of CFU Lung / Mean Log10 No. of CFU Spleen: 5 day/week for 4 week; for Mean Log10 no. of reduction Lung / Mean Log10 no. of reduction Spleen / Mean Log10 No. of reduction Lung / Mean Log10 No. of reduction Spleen: difference from early controls
[10] = system: M. tuberculosis H37Rv ATCC 27294; assay: Murine model of pulmonary tuberculosis, treated 14 days post-infection; details: Table IV; for Mean Log10 No. of CFU Lung / Mean Log10 No. of CFU Spleen: 5 day/week for 4 week, treated 14 days post-infection; for Mean Log10 no. of reduction Lung / Mean Log10 no. of reduction Spleen: difference from early controls
[11] = mice, oral route; cited from earlier work
[12] = read-out: MIC (μg/ml) M. tuberculosis Sensitive (n = 17)
[13] = read-out: MIC (μg/ml) against Clinical isolates Sensitive
[14] = Table III, 12.5 mg/kg gavage, treatment from 1 day after infection
[15] = Table III, 25 mg/kg gavage, treatment from 1 day after infection
[16] = Table III, 50 mg/kg gavage, treatment from 1 day after infection
[17] = Table VI, 12.5 mg/kg, treated 01 day post-infection
[18] = Table VI, 25 mg/kg, treated 01 day post-infection
[19] = Table VI, 50 mg/kg, treated 01 day post-infection

Cc1c(CN2CCN(C)CC2)cc(-c2ccc(Cl)cc2)n1-c1ccc(Cl)cc1 [BM 212]
MIC value (μg/ml) against the M. tuberculosis strain 103471 [1]: 0.70 µg/mL (≈ 1.69 µM)

COc1ccccc1N1CCN(Cc2cc(-c3ccc(Cl)cc3)n(-c3ccc(Cl)cc3)c2C)CC1 [Compound No. 2, 1-{[1,5-bis(4-chlorophenyl)-2-methylpyrrol-3-yl]methyl}-4-(2-methoxyphenyl) piperazine]
Growth inhibition of M. tuberculosis 27294 [2]: + | MIC [3]: 0.25 µg/mL (≈ 0.494 µM) | MIC [4, 12]: 0.125 to 0.25 µg/mL (≈ 0.247 to 0.494 µM) | MIC [4, 13]: 0.125 to 0.25 µg/mL (≈ 0.247 to 0.494 µM) | MIC [5]: 4 to 8 µg/mL (≈ 7.9 to 15.8 µM) | MIC ([6]; Table II, 8 strains): 8 to 16 µg/mL (≈ 15.8 to 31.6 µM) | MIC ([7]; Table II, 2 strains): 8 µg/mL (≈ 15.8 µM)

Cc1c(CN2CCN(c3cccc(C(F)(F)F)c3)CC2)cc(-c2ccc(Cl)cc2)n1-c1ccc(Cl)cc1 [Compound No. 3, 1-{[1,5-bis(4-chlorophenyl)-2-methylpyrrol-3-yl]methyl}-4-(3-trifluoromethylphenyl)piperazine]
Growth inhibition of M. tuberculosis 27294 [2]: + | MIC [3]: 0.125 µg/mL (≈ 0.23 µM) | MIC [4, 12]: 0.125 to 0.25 µg/mL (≈ 0.23 to 0.459 µM) | MIC [4, 13]: 0.125 to 0.25 µg/mL (≈ 0.23 to 0.459 µM) | MIC [5]: 4 to 8 µg/mL (≈ 7.35 to 14.7 µM) | MIC ([6]; Table II, 8 strains): 4 to 8 µg/mL (≈ 7.35 to 14.7 µM) | MIC ([7]; Table II, 2 strains): 4 µg/mL (≈ 7.35 µM) | Clinical symptoms or mortality ([8]; single oral dose 500 and 2000 mg/kg, Swiss albino mice, observed for 14 days): No clinical symptom or mortality was observed | Pathological changes in organs ([8]; single oral dose 500 and 2000 mg/kg, mice sacrificed on day 15): no pathological changes were seen in any organ | LD0 ([8]; observed for 14 days): > 2000 mg/kg | Mean Log10 No. of CFU Lung [9, 14]: 2.63 | Mean Log10 No. of CFU Spleen [9, 14]: 2.6 | Mean Log10 no. of reduction Lung ([9]; Table III, 12.5 mg/kg): 1.85 | Mean Log10 no. of reduction Spleen ([9]; Table III, 12.5 mg/kg): 2.03 | Mean Log10 No. of CFU Lung [9, 15]: 2.13 | Mean Log10 No. of CFU Spleen [9, 15]: 2.07 | Mean Log10 no. of reduction Lung ([9]; Table III, 25 mg/kg): 2.35 | Mean Log10 no. of reduction Spleen ([9]; Table III, 25 mg/kg): 2.29 | Mean Log10 No. of CFU Lung [9, 16]: 1.97 | Mean Log10 No. of CFU Spleen [9, 16]: 1.94 | Mean Log10 no. of reduction Lung ([9]; Table III, 50 mg/kg): 2.51 | Mean Log10 no. of reduction Spleen ([9]; Table III, 50 mg/kg): 2.64

Cc1c(CN2CCN(c3cccc(C(F)(F)F)c3)CC2)cc(-c2ccccc2)n1NC(=O)c1ccncc1 [Compound No. 12, N-(3-{[4-(3-trifluoromethylphenyl)piperazinyl]methyl}-2-methyl-5-phenylpyrrolyl)-4-pyridylcarboxamide]
Growth inhibition of M. tuberculosis 27294 [2]: + | MIC (μg/ml) against M. tuberculosis-27294 ([3]; Table I): 0.25 µg/mL (≈ 0.481 µM) | MIC (μg/ml) against Clinical isolates Sensitive ([4]; Table I, agar dilution): 0.25 to 0.5 µg/mL | LD0 ([8]; observed for 14 days): > 500 mg/kg | Mean Log10 No. of CFU Lung [9, 17]: 2.34 ± 0.18 | Mean Log10 No. of CFU Spleen [9, 17]: 2.26 ± 0.21 | Mean Log10 No. of reduction Lung ([9]; Table VI, 12.5 mg/kg): 2.23 | Mean Log10 No. of reduction Spleen ([9]; Table VI, 12.5 mg/kg): 2.43 | Mean Log10 No. of CFU Lung [9, 18]: 2.1 ± 0.24 | Mean Log10 No. of CFU Spleen [9, 18]: 2.13 ± 0.28 | Mean Log10 No. of reduction Lung ([9]; Table VI, 25 mg/kg): 2.47 | Mean Log10 No. of reduction Spleen ([9]; Table VI, 25 mg/kg): 2.56 | Mean Log10 No. of CFU Lung [9, 19]: 1.89 ± 0.24 | Mean Log10 No. of CFU Spleen [9, 19]: 1.94 ± 0.23 | Mean Log10 No. of reduction Lung ([9]; Table VI, 50 mg/kg): 2.68 | Mean Log10 No. of reduction Spleen ([9]; Table VI, 50 mg/kg): 2.75 | Mean Log10 No. of CFU Lung ([10]; 12.5 mg/kg): 4.18 ± 0.38 | Mean Log10 No. of CFU Spleen ([10]; 12.5 mg/kg): 4.41 ± 0.26 | Mean Log10 no. of reduction Lung ([10]; 12.5 mg/kg): 1.41 | Mean Log10 no. of reduction Spleen ([10]; 12.5 mg/kg): 1.54 | Mean Log10 No. of CFU Lung ([10]; 25 mg/kg): 2.87 ± 0.15 | Mean Log10 No. of CFU Spleen ([10]; 25 mg/kg): 2.83 ± 0.29 | Mean Log10 no. of reduction Lung ([10]; 25 mg/kg): 2.72 | Mean Log10 no. of reduction Spleen ([10]; 25 mg/kg): 3.12 | Mean Log10 No. of CFU Lung ([10]; 50 mg/kg): 2.74 ± 0.36 | Mean Log10 No. of CFU Spleen ([10]; 50 mg/kg): 2.78 ± 0.32 | Mean Log10 no. of reduction Lung ([10]; 50 mg/kg): 2.85 | Mean Log10 no. of reduction Spleen ([10]; 50 mg/kg): 3.17

NNC(=O)c1ccncc1 [Isoniazid, reference compound]
Growth inhibition of M. tuberculosis 27294 [2]: + | MIC [3]: 0.25 µg/mL (≈ 1.82 µM) | MIC [4, 12]: 0.25 µg/mL (≈ 1.82 µM) | MIC [4, 13]: 0.125 to 0.25 µg/mL (≈ 0.911 to 1.82 µM) | MIC [6]: > 16 µg/mL | MIC [7]: > 16 µg/mL | MIC value (μg/ml) against the M. tuberculosis strain 103471 [1]: 0.25 µg/mL (≈ 1.82 µM) | Reported LD50 [11]: 139 mg/kg | Mean Log10 No. of CFU Lung [9, 14]: 2.93 | Mean Log10 No. of CFU Spleen [9, 14]: 2.91 | Mean Log10 no. of reduction Lung ([9]; Table III, 12.5 mg/kg): 1.55 | Mean Log10 no. of reduction Spleen ([9]; Table III, 12.5 mg/kg): 1.72 | Mean Log10 No. of CFU Lung [9, 15]: 2.16 | Mean Log10 No. of CFU Spleen [9, 15]: 2.21 | Mean Log10 no. of reduction Lung ([9]; Table III, 25 mg/kg): 2.36 | Mean Log10 no. of reduction Spleen ([9]; Table III, 25 mg/kg): 2.27 | Mean Log10 No. of CFU Lung [9, 16]: 1.95 | Mean Log10 No. of CFU Spleen [9, 16]: 2.12 | Mean Log10 no. of reduction Lung ([9]; Table III, 50 mg/kg): 2.53 | Mean Log10 no. of reduction Spleen ([9]; Table III, 50 mg/kg): 2.51 | Mean Log10 No. of CFU Lung [9, 17]: 2.89 ± 0.27 | Mean Log10 No. of CFU Spleen [9, 17]: 2.91 ± 0.42 | Mean Log10 No. of reduction Lung ([9]; Table VI, 12.5 mg/kg): 1.68 | Mean Log10 No. of reduction Spleen ([9]; Table VI, 12.5 mg/kg): 1.78 | Mean Log10 No. of CFU Lung [9, 18]: 2.23 ± 0.33 | Mean Log10 No. of CFU Spleen [9, 18]: 2.21 ± 0.44 | Mean Log10 No. of reduction Lung ([9]; Table VI, 25 mg/kg): 2.34 | Mean Log10 No. of reduction Spleen ([9]; Table VI, 25 mg/kg): 2.48 | Mean Log10 No. of CFU Lung [9, 19]: 2.02 ± 0.31 | Mean Log10 No. of CFU Spleen [9, 19]: 2.07 ± 0.33 | Mean Log10 No. of reduction Lung ([9]; Table VI, 50 mg/kg): 2.55 | Mean Log10 No. of reduction Spleen ([9]; Table VI, 50 mg/kg): 2.62 | Mean Log10 No. of CFU Lung ([10]; 12.5 mg/kg): 4.56 ± 0.24 | Mean Log10 No. of CFU Spleen ([10]; 12.5 mg/kg): 4.93 ± 0.42 | Mean Log10 no. of reduction Lung ([10]; 12.5 mg/kg): 1.03 | Mean Log10 no. of reduction Spleen ([10]; 12.5 mg/kg): 1.02 | Mean Log10 No. of CFU Lung ([10]; 25 mg/kg): 3.19 ± 0.6 | Mean Log10 No. of CFU Spleen ([10]; 25 mg/kg): 3.08 ± 0.44 | Mean Log10 no. of reduction Lung ([10]; 25 mg/kg): 2.4 | Mean Log10 no. of reduction Spleen ([10]; 25 mg/kg): 2.87 | Mean Log10 No. of CFU Lung ([10]; 50 mg/kg): 2.97 ± 0.46 | Mean Log10 No. of CFU Spleen ([10]; 50 mg/kg): 2.89 ± 0.27 | Mean Log10 no. of reduction Lung ([10]; 50 mg/kg): 2.62 | Mean Log10 no. of reduction Spleen ([10]; 50 mg/kg): 3.06

Cc1c(CN2CCN(c3ncccn3)CC2)cc(-c2ccc(Cl)cc2)n1-c1ccc(Cl)cc1 [compound 5, 1-{[1,5-bis(4-chlorophenyl)-2-methylpyrrol-3-yl]methyl}-4-(2-pyrimidyl) piperazine]
Growth inhibition of M. tuberculosis 27294 [2]: + | MIC [3]: 0.25 µg/mL (≈ 0.523 µM) | MIC [4, 12]: 0.5 to 1 µg/mL (≈ 1.05 to 2.09 µM) | MIC [4, 13]: 0.5 to 1 µg/mL (≈ 1.05 to 2.09 µM) | MIC [5]: 4 to 8 µg/mL (≈ 8.36 to 16.7 µM) | MIC ([6]; Table II, 8 strains): 8 to 16 µg/mL (≈ 16.7 to 33.4 µM) | MIC ([7]; Table II, 2 strains): 8 µg/mL (≈ 16.7 µM) | melting point: 184 to 186 °C
